From patent US10280179B2, “Spiroquinoxaline derivatives as inhibitors of non-apoptotic regulated cell-death” (Helmholtz Zentrum Munchen—Deutches Forschungszentrum Fur …, priority 2013, dated 2019)

Experiments:
C57BL/6 mice [1] = assay: Kidney ischemia-reperfusion injury animal model (Example C.2); format: in vivo, mouse; settings: kidney IRI, compared to vehicle control, FIG. 3
Procedure: FIG. 3: Efficacy of a compound of the invention in an animal model of kidney IRI.
Briefly, to test such utility of compounds disclosed herein, ischemia is induced in the kidney of 6-8 week old C57BL/6 mice by interruption of the blood supply to the kidney via reversible clipping of the Arteria renalis for 30 min, followed by reperfusion for a period of 24 h. Mice are treated with compound (or vehicle control) generally as described in Example C.1 at 1 hour prior to and four hours after abdominal closure and once daily over a period of 14 days. Markers to be investigated for IRI of kidney include reduction of creatinine levels in the serum along with histopathological analysis.

Pfa1 cells = assay: Inhibition of non-apoptotic cell death after tamoxifen-induced GPx4 knockout in a recombinant cell line (Example B.4); format: cell-based; settings: Mus musculus, read-out: Pfa1/TAM IC50
How it was run: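 Immortalised murine fibroblasts with tamoxifen-inducible CreERT2 for ablation of both GPx4 copies (Pfa1 cells) received tamoxifen on day 0 together with test compound. Cell survival was measured by AlamarBlue after 72 hours.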

C57BL/6 mice [2] = assay: Liver ischemia-reperfusion injury animal model (Example C.1); format: in vivo, mouse; settings: liver IRI (90 min ischemia, 24 h reperfusion), single i.p. dose 10 mg/Kg, compared to vehicle control
Procedure: FIG. 2: Efficacy of a compound of the invention in an animal model of liver IRI. […] The “Sham” bar represents the data from control animals that were treated to the same protocol but without atraumatic clipping. Errors shown are SEM. Significant differences are seen between IRI+vehicle compared to IRI+Cmpd, as well as between IRI+vehicle compared to Sham+vehicle.
Briefly, to test such utility of compounds disclosed herein, ischemia is induced in the liver of 6-8 week old C57BL/6 mice (Charles River) by midline laparotomy whereby the blood supply to the left and median lobes of the liver is interrupted via atraumatic clipping for 90 min, followed by reperfusion for a period of 24 h. After reperfusion, but prior to final abdominal closure, animals are treated with a single i.p. dose of the compound to be tested (10 mg/Kg), or with vehicle (DMSO) as negative control. Markers to be investigated for IRI of liver include liver parameters from serum (ALT/GPT, AST/GOT, Bilirubin, Urea), histopathological analysis and rtPCR of inflammatory and non-apoptotic cell death markers (such as TNF-alpha and INF-gamma). […] The “Sham” bar represents the data from control animals that were treated to the same protocol but without atraumatic clipping.

[3] = Cellular toxicity, same assay as Example B.4 without TAM (Example B.5); format: cell-based; settings: mouse; Pfa1 cells without TAM; read-out: TC50 (the source's name)
Source text: Cellular Toxicity of Compounds of the Invention
An estimate of the toxicity for compounds of the invention was obtained by using the same assay as described in Example B.4, but without the addition of TAM. […] Such TC50 values obtained for certain compounds disclosed herein, together with an approximate therapeutic window (estimated by dividing each TC50 by the corresponding IC50 determined from example B.4) are shown in Table 3.

**Q.** Which results are given for `Clc1cccc(CNC2=Nc3ccccc3NC23CCNCC3)c1` [N-2]?
**A.** survival of mice suffering kidney-ischemic reperfusion injury (C57BL/6 mice [1]; dose 1 mg/kg): Improved survival; survival of mice suffering kidney-ischemic reperfusion injury (C57BL/6 mice [1]; dose 10 mg/kg): Improved survival; IC50 (Pfa1 cells): < 0.02 µM; serum marker for liver cell damage GPT (C57BL/6 mice [2]; FIG. 2(a)): significant reduction; serum marker for liver cell damage GOT (C57BL/6 mice [2]; FIG. 2(b)): significant reduction; CC50 [3]: 5 to 10 µM
